# Test results taken from patent CN106905199A, “一种基于聚集诱导发光原理用于选择性检测半胱氨酸的荧光试剂的合成及应用” (Gannan Normal University, priority 2017, dated 2017).
# Assays:
# [1] = Response time of TPENNO2 to Cys (fluorescence vs incubation time); conditions: 25 μM TPENNO2, PBS (50 mM, pH 7.4, 2.5% DMSO), 200 μM Cys, 37℃
# [2] = Selectivity test of TPENNO2: essential amino acids; conditions: 25 μM TPENNO2 in PBS, 300 μM analyte, 37℃, 30 min, Ex=341 nm
# [3] = Selectivity test of TPENNO2: Hcy; conditions: 300 μM Hcy, 37℃, 30 min, Ex=341 nm
# [4] = Selectivity test of TPENNO2: GSH; conditions: 300 μM GSH, 37℃, 30 min, Ex=341 nm
# [5] = Reaction kinetics of TPENNO2 with the thiol of Cys
# [6] = Reaction kinetics of TPENNO2 with the thiol of GSH
# [7] = system: thiol compounds in HeLa cells [HeLa细胞内巯基化合物]; experiment: Fluorescence imaging of intracellular thiols in HeLa cells; format: cell-based, human
smiles,measurement,setting,value
O=[N+]([O-])c1ccc(S(=O)(=O)Nc2ccc(C(=C(c3ccccc3)c3ccccc3)c3ccccc3)cc2)c([N+](=O)[O-])c1 [TPENNO2],incubation time after which fluorescence intensity is essentially saturated,[1],30 min
same,change of fluorescence intensity after reaction with essential amino acids other than Cys,[2],没有明显增强
same,change of fluorescence intensity after reaction with Hcy,[3]; 25 μM TPENNO2 in PBS,没有明显增强
same,interference of Hcy with Cys detection,[3],干扰均较小
same,change of fluorescence intensity after reaction with GSH,[4]; 25 μM TPENNO2 in PBS,没有明显增强
same,interference of GSH with Cys detection,[4],干扰均较小
same,first-order reaction kinetic constant with the thiol of Cys,[5],0.13 min⁻¹
same,first-order reaction kinetic constant with the thiol of GSH,[6],0.0048 min⁻¹
same,fluorescence signal in HeLa cells,"[7]; 4 μM TPENNO2, 20 min, no pretreatment, Ex 405 nm, 450-550 nm collected",绿色荧光信号
same,fluorescence signal in HeLa cells after Cys pretreatment,"[7]; 0.5 mM Cys 24 h, then 4 μM TPENNO2, 20 min",荧光信号增强
same,fluorescence signal in HeLa cells after NEM pretreatment,"[7]; 0.5 mM NEM (N-ethylmaleimide, thiol-consuming) 15 min, then 4 μM TPENNO2, 20 min",荧光信号减弱
